Measurements published in paper PMC10800708, “Efficacies and ADME properties of redox active methylene blue and phenoxazine analogues for use in new antimalarial triple drug combinations with amino-artemisinins” (Frontiers in Pharmacology, 2024).
Where “and” joins values, the source holds several entries; their conditions need not be identical. Equal values may be shown once. Read-outs that look alike come from different tables or passages of the source.

Legend:
[1] = tested on: Chinese Hamster Ovary (CHO) cell line, CHO-K1; assay: MTT cytotoxicity assay; assay type: cell-based
Experimental: Cytotoxicity assays were conducted against the Chinese Hamster Ovary (CHO) cell line, ATCC CCL-61, strain CHO-K1. […] Cells were grown at 37°C in a humidified atmosphere of 5% CO2 and maintained by passage. Cells lines were seeded in 96-well microtitre plates at 10^4 cells/well in cell medium. […] DMSO (100 µL) was added to dissolve the MTT formazan precipitate, and the plates were gently agitated for 2 min to ensure homogeneity. Absorbance was measured at 540 nm using a Turner BioSystems, Inc. ModulusTM II Microplate Reader. The data were analyzed by nonlinear regression analysis using the GraphPad PRISM version 5.00 program to determine the IC50 of each compound.

[2] = tested on: Plasmodium falciparum DD2; assay: Parasite lactate dehydrogenase (pLDH) assay over 72 h, CQ-resistant strain; assay type: cell-based; details: for IC50: Plasmodium falciparum, read-out: Plasmodium falciparum IC50 DD2
Experimental: (§1) The assay was performed in quadruplicate. The data were analyzed by nonlinear regression analysis using the GraphPad PRISM version 5.00 program to determine the IC50 of each compound.

[3] = tested on: Plasmodium falciparum NF54; assay: Parasite lactate dehydrogenase (pLDH) assay over 72 h, CQ-sensitive strain; assay type: cell-based
Experimental: as §1

[4] = Metabolic stability in human liver microsomes; assay type: in vitro ADME
Experimental: (§2) Eq. 4 Predicted t1/2 t1/2=−0.693/λ (4) Where λ is the slope of the Ln % parent remaining vs. time curve. • v. Plasma protein binding. Plasma protein binding was determined in pooled human plasma using an ultracentrifugation method. Stock solutions of test compounds (10 mM) were diluted in phosphate buffer and spiked into plasma in deep well 96-well plates (10 µM). An aliquot of each compound was immediately precipitated with ice cold acetonitrile containing the internal standard carbamazepine (0.1 μM). These served as total concentration samples. After incubation in a water bath at 37°C for 1 h, the samples were transferred to ultracentrifuge tubes in duplicate and centrifuged for 4 h at 37°C and 30,000 g (Optima L-80XP, Beckman). Following centrifugation, the supernatant was transferred to the plate containing the total concentration samples and precipitated with ice cold acetonitrile containing the internal standard. Analyte concentrations of all compounds were determined via LC-MS/MS (reverse phase Gemini NX-C18 column and Shimadzu HPLC coupled with an AB Sciex 3200 Q TRAP MS) as described above. • vi. Metabolic stability. A 5-point metabolic stability assay in human and mouse liver microsomes were performed in duplicate in 96-well plates. […] The cofactor NADPH was added, and the reactions were subsequently stopped at time points 5, 10, 30 and 60 min by removal of an aliquot and quenching with ice cold acetonitrile containing the internal standard. The supernatant of all samples was analysed via LC-MS/MS analysis (reverse phase Gemini NX-C18 column and Shimadzu HPLC and AB Sciex 3200 Q TRAP MS) as described above.

[5] = In vivo PK, iv and oral, whole blood; set-up: species or system C57BL/6 mice
Experimental: • i. Animals. […] Food and water were available ad libitum. Mice were acclimatised to the experimental environment for 4-5 days prior to initiating the experiments. • ii. Oral drug administration. AD01 and PhX6 were prepared in 100% Millipore […] prepared in an aqueous suspension of 0.5% HPMC (w/v) containing 0.2% Tween 80 (v/v). The weighed compounds were sonicated and vortexed to ensure all solutions were homogenous. […] The total volume per administration was 200 μL. Blood samples were collected post-dose in lithium heparin microvials via tail bleeding at predetermined intervals at 0.5, 1, 3, 5, 8, 10 and 24 h. Samples were gently vortexed and stored at -80°C until analysis. • iii. Intravenous administration. AD01 and PhX6 were prepared in 100% Millipore […] prepared in an organic vehicle consisting of 10% N,N-dimethylacetamide, 30% polyethylene glycol 400 (PEG), 50% polypropylene glycol (PPG) and 10% ethanol (1:3:5:1, v/v) for intravenous (iv) dosing at 10 mg/kg. The total volume of administration was 80 μL. Blood samples were collected post-dose in lithium heparin microvials via tail bleeding at predetermined intervals at 0.16, 0.5, 1, 3, 5, 8, 10 and 24 h. Samples were gently vortexed and stored at -80°C until analysis. • iv. Sample processing and analysis. […] The mixture was vortexed vigorously for 1 min, and 5 μL of the supernatant were injected onto the analytical column following centrifugation (5590 g for 5 min). A Shimadzu HPLC and reverse phase Gemini NX-C18 column coupled to an AB Sciex 3200 Q TRAP MS was operated at unit resolution in the multiple reaction monitoring (MRM) mode as described above. […] Data analysis. Drug concentration versus time plots for each compound were used to determine maximal drug concentration C max, time T max to reach C max, elimination half-life t 1/2 and the area under the concentration-time curve from time zero to infinity, AUC0-inf. From these values the PK parameters clearance CL, volume of distribution Vd and oral bioavailability BA were determined using the non-compartmental analysis Microsoft Excel Add-In PKSolver ([Zhang et al., 2010]).

[6] = Plasma stability in pooled human plasma; assay type: in vitro ADME; details: 37°C
Experimental: . […] The aqueous mobile phase was water with 0.1% formic acid and the organic mobile phase was acetonitrile with 0.1% formic acid. The gradient method has a flow rate of 0.8 mL/min, with a total run time of 2.5 min starting at 5% organic and increasing to 95% at 1.4 min, holding for 40 s before returning to 5% to re-equilibrate the column. • ii. Lipophilicity. Stock solutions (10 mM) of compounds were diluted to 100 μM in 96-well deep-well plate containing 300 µL of 1-octanol and 300 µL of phosphate buffer at pH 7.4. The plate was agitated on an orbital shaker at 750 rpm for 2 h. The organic and buffer layers of each well were transferred separately to a new analysis plate. The samples were analysed with the HPLC diode array detection as described for kinetic solubility. Samples from both layers were analysed to determine LogD7.4 values. • iii. Passive permeability. A parallel artificial membrane permeation assay (PAMPA) was used to assess the passive permeability of compounds with a 96-well MultiScreen filter plate ([…] pore size, Millipore). The filter plate was precoated with 5% hexadecane in hexane. Stock solutions of compounds were diluted to 1 mM in a donor buffer (pH 6.5). Lucifer yellow was added to the apical wells of the precoated MultiScreen plate containing compound donor solution. The donor buffer solutions were spiked with each test compound (1 mM). The acceptor-buffer solution was prepared by adding 10 μL DMSO to 990 μL acceptor buffer (pH 7.4) and 250 μL were added to the basolateral (acceptor) wells. The donor plate was carefully inserted into the acceptor plate and incubated at room temperature for 4 h. After the incubation period, 50 μL of samples from the acceptor plate were transferred to a round bottom 96-well plate, together with 30 μL of donor buffer for matrix matching. Theoretical equilibrium samples for each test compound were prepared by adding 150 μL of donor solutions to 250 μL acceptor solutions and left at room temperature. These theoretical equilibrium samples represent complete transfer of the compound into the donor well. For the theoretical equilibrium samples, 80 μL were added to the analysis plate. Lastly, 160 μL of the internal standard carbamazepine (0.1 μM) was added to all acceptor and equilibrium samples. A portion of the sample containing Lucifer yellow was analyzed on a BioRad iMarkTM Microplate Absorbance Reader (BioRad, Hercules, CA, United States; […]. Samples were analysed using reverse phase Gemini NX-C18 column (5 μm, 2.1 mm × 50 mm) with a Shimadzu HPLC coupled with an AB Sciex 3200 Q TRAP MS). […]. Plasma stability. Stock solutions of compounds in DMSO (10 mM) were used to spike pooled human plasma. […]
. Plasma protein binding was determined in pooled human plasma using an ultracentrifugation method. […]

[7] = Metabolic stability in mouse liver microsomes; assay type: in vitro ADME
Experimental: as §2

[8] = Kinetic solubility in PBS; assay type: physicochemical; details: phosphate buffer saline (PBS), aqueous buffer, kinetic from dmso stock
Experimental: . […] The aqueous mobile phase was water with 0.1% formic acid and the organic mobile phase was acetonitrile with 0.1% formic acid. The gradient method has a flow rate of 0.8 mL/min, with a total run time of 2.5 min starting at 5% organic and increasing to 95% at 1.4 min, holding for 40 s before returning to 5% to re-equilibrate the column. • ii. Lipophilicity. Stock solutions (10 mM) of compounds were diluted to 100 μM in 96-well deep-well plate containing 300 µL of 1-octanol and 300 µL of phosphate buffer at pH 7.4. The plate was agitated on an orbital shaker at 750 rpm for 2 h. The organic and buffer layers of each well were transferred separately to a new analysis plate. The samples were analysed with the HPLC diode array detection as described for kinetic solubility. Samples from both layers were analysed to determine LogD7.4 values. • iii. Passive permeability. A parallel artificial membrane permeation assay (PAMPA) was used to assess the passive permeability of compounds with a 96-well MultiScreen filter plate ([…] pore size, Millipore). The filter plate was precoated with 5% hexadecane in hexane. Stock solutions of compounds were diluted to 1 mM in a donor buffer (pH 6.5). Lucifer yellow was added to the apical wells of the precoated MultiScreen plate containing compound donor solution. The donor buffer solutions were spiked with each test compound (1 mM). The acceptor-buffer solution was prepared by adding 10 μL DMSO to 990 μL acceptor buffer (pH 7.4) and 250 μL were added to the basolateral (acceptor) wells. The donor plate was carefully inserted into the acceptor plate and incubated at room temperature for 4 h. After the incubation period, 50 μL of samples from the acceptor plate were transferred to a round bottom 96-well plate, together with 30 μL of donor buffer for matrix matching. Theoretical equilibrium samples for each test compound were prepared by adding 150 μL of donor solutions to 250 μL acceptor solutions and left at room temperature. These theoretical equilibrium samples represent complete transfer of the compound into the donor well. For the theoretical equilibrium samples, 80 μL were added to the analysis plate. Lastly, 160 μL of the internal standard carbamazepine (0.1 μM) was added to all acceptor and equilibrium samples. A portion of the sample containing Lucifer yellow was analyzed on a BioRad iMarkTM Microplate Absorbance Reader (BioRad, Hercules, CA, United States; […]. Samples were analysed using reverse phase Gemini NX-C18 column (5 μm, 2.1 mm × 50 mm) with a Shimadzu HPLC coupled with an AB Sciex 3200 Q TRAP MS). […]. Plasma stability. Stock solutions of compounds in DMSO (10 mM) were used to spike pooled human plasma. 90 μL of each sample was transferred in duplicate to 6 different wells of a 96-deep well plate. An aliquot of each sample was immediately quenched with ice cold acetonitrile containing the internal standard carbamazepine (0.1 µM), after which the plate was incubated in a water bath (37°C for […]). Aliquots of samples were removed at 5, 15, 40, 60 and 180 min and quenched with ice cold acetonitrile. After samples of the final time point were precipitated, the supernatant was transferred to a round bottom 96-well plate for analysis by LC-MS/MS using a reverse phase Gemini NX-C18 column (5 μm, 2.1 mm × 50 mm) with a Shimadzu HPLC coupled with an AB Sciex 3200 Q TRAP MS) operated at unit resolution in the multiple reaction monitoring (MRM) mode. The aqueous phase consisted of water with 0.1% formic acid and the organic mobile phase consisted of methanol and acetonitrile (1:1, (v/v)) with 0.1% formic acid. […]. The peak area ratios were used to calculate the amount of parent compound remaining and t1/2 in plasma, using the following equations.

[9] = tested on: asexual blood stage of P. falciparum; set-up: method as in Coertzen et al., 2018; details: ref Coertzen et al., 2018; cited from earlier work
[10] = set-up: method as in Agency, 2009; details: ref Agency, 2009; cited from earlier work
[11] = tested on: gametocytes; set-up: method as in Coertzen et al., 2018; details: ref Coertzen et al., 2018; cited from earlier work
[12] = human, in vivo; cited from earlier work
[13] = set-up: method as in Wittlin et al., 2013; details: ref Wittlin et al., 2013; cited from earlier work
[14] = tested on: multidrug resistant Pf K1 strain; set-up: method as in Wittlin et al., 2013; details: tritiated hypoxanthine assay; ref Wittlin et al., 2013; read-out: Activity against multidrug resistant Pf K1 strain; cited from earlier work
[15] = set-up: method as in Gibhard et al., 2021; details: murine model, ref Gibhard et al., 2021; cited from earlier work
[16] = C57BL/6, mouse, 10 mg/kg, mice, intravenous, whole blood
[17] = C57BL/6, mouse, whole blood, po, 5 mg/kg

C[C@H]1[C@H](N2CCS(=O)(=O)CC2)O[C@@H]2O[C@@]3(C)CC[C@H]4[C@H](C)CC[C@@H]1[C@@]24OO3 [AMS, artemisone]
IC50 ([1]; Cricetulus griseus, CHO cells, MTT): > 249000 nM
Selectivity index CHO/resistant Pf strain ([1]; cytotoxicity IC50/activity IC50, CHO/DD2): >1,000
Selectivity index CHO/sensitive Pf strain ([1]; cytotoxicity IC50/activity IC50, CHO/NF54): >1,000
Resistance index ([2]; IC50 (resistant strain)/IC50 (sensitive strain), DD2/NF54): 1.2
IC50 ([2]; CQ-resistant DD2, pLDH 72 h, n = 3): 5.48 ± 2.03 nM
IC50 ([3]; CQ-sensitive NF54, pLDH 72 h, n = 3, read-out: Plasmodium falciparum IC50 NF54): 4.5 ± 2.42 nM

CCN(CC)CCCC(C)Nc1ccnc2cc(Cl)ccc12 (stereo not shown) [CQ, chloroquine, reference compound]
IC50 ([2]; DD2, 72 h): 142 ± 16.8 nM
IC50 ([3]; NF54, 72 h, read-out: Plasmodium falciparum IC50 NF54): 9.9 ± 0.4 nM

CCNC(=S)NN=C(c1ccccn1)c1ccccn1 [DpNEt]
CLint scaled [4]: 4 mL/min/kg
Vd [5, 16]: 1 ± 0.16 L/kg
clearance [5, 16]: 10.2 ± 0.93 mL/min/kg
half-life ([5]; C57BL/6, mouse, whole blood, iv, 10 mg/kg, mice, intravenous, whole blood, read-out: t1/2 (converted)): 1.2 h
Cmax [5, 17]: 6.32 ± 1.15 µM
Tmax [5, 17]: 0.7 ± 0.12 h
AUC0-∞ ([5]; mice, intravenous, whole blood): 1795 ± 198 µmol·min/L
t1/2 ([5]; mice, intravenous, whole blood): 1.12 ± 0.13 h
BA ([5]; mice, oral bioavailability): 8% and 8 ± 2%
AUC0-∞ ([5]; mice, oral gavage: AD01 4.6, PhX6 4.5, DpNEt 5 mg/kg): 550 ± 148 µmol·min/L
half-life [6]: > 2.5 h
CLint scaled [7]: 22.3 mL/min/kg
solubility at 2 h ([8]; PBS pH 2, read-out: Predicted solubility pH 2): > 150 µM
solubility at 2 h ([8]; PBS pH 6.5, read-out: Predicted solubility pH 6.5): > 150 µM
solubility at 2 h ([8]; PBS pH 7.4, read-out: Predicted solubility pH 7.4): > 150 µM

CN(C)c1ccc2nc3ccc(=[N+](C)C)cc-3sc2c1 [MB, methylene blue]
Interaction with artemisone against the asexual blood stage [9]: only an additive effect
Protein bound [10]: 94%
Interaction with artemisone, gametocytocidal activity [11]: synergistically enhanced
Bioavailability [12]: 72.3± 23.9%
Mean terminal half-life [12]: 5.25 h

CCN(CC)c1ccc2nc3c4ccccc4/c(=N\c4ccncc4)cc-3oc2c1 [SSJ-183]
half-life [13]: 10.3 h
IC50 [14]: 7.6 nM

C[C@H]1[C@H](N2CCSCC2)O[C@@H]2O[C@@]3(C)CC[C@H]4[C@H](C)CC[C@@H]1[C@@]24OO3 [artemiside]
Cmax relative to that after oral administration of artemisone [15]: 2.6 fold
